# Data as given in patent US10525044B2, “Treatment for chemotherapy-induced peripheral neuropathy” (priority 2013, dated 2020).
# Experiments:
# [1] = tested on: intramitochondrial ROS in neurons; assay: ROS examination with DHR 123 in neurons; format: cell-based, Sprague-Dawley rats; conditions: 10 μM PAN-811; 100 μM MTX and 25 μM 5-FU; 1 day
# Source text: Neuronal Cell Culture. […] Since AOs, including vitamin E, vitamin E acetate, superoxide dismutase (SOD), catalase (CAT), and GSH, are additives to culture medium, reduction of AO concentration in culture medium provides an approach to determine the level of OS involvement in a neurotoxic process. In our study, the culture medium was replaced at a 50% ratio with NB plus B27 minus AOs twice at days 7 and 9 to set AO concentrations as 50% and 25%, respectively. […] Cell Insults and Treatments. Determination of concentration for each anticancer drug in our experiments was based on its reported concentration in human cerebral spinal fluid (CSF) in chemotherapy, literature report of its neurotoxicity in culture, and our preliminary in vitro experimental data. […] For ROS examination, the neurons were insulted with both 100 μM of MTX and 25 μM of 5-FU by 15 d.i.v. […] ROS Examination. […] Fluorescence was photographed by using a fluorescentmicroscope and quantified by excitation at 485 nm and emission at 520 nm using a 96-well plate reader (Model 550, Bio-Rad). […] Data were generated from 4-6 replicate wells, expressed as mean±standard deviation (SD), and statistically evaluated at a significance level of 1% with one factor ANOVA or Student's t-test by using software […] […]
# [2] = tested on: middle cerebral artery occlusion (MCAo); conditions: cited from earlier work
compound,measurement,setting,value
"NC(=S)N/N=C/c1ncccc1N [PAN-811, 3-aminopyridine-2-carboxaldehyde thiosemicarbazone]",suppression rate of increased ROS (DHR123),[1],62.3%
same,reduction of mortality,[2]; PAN-811 treated groups collectively,44%
same,reduction in brain edema volume,"[2]; i.v., 2 mg/kg",70%
same,"reduction of infarct volume, maximal protection","[2]; single i.v. bolus, 2 mg/kg",50%
